Measurements published in ChEMBL document CHEMBL1201862, “PubChem BioAssay data set” (2004).
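Results reflect a 48-hour exposure of cells in 96-well plates to compound at five concentrations. The concentration for 50% growth inhibition is given as GI50.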 Active and inactive are the calls of the source. Rule as the data show it: active = GI50 up to about 1.1 µM and inactive = higher.

Assays:
Assay in all cases: growth of human tumour cells (NCI), 48 h
SF-295 = tested on: SF-295
UO-31 = tested on: UO-31
OVCAR-8 = tested on: OVCAR-8
Malme-3M = tested on: Malme-3M
MCF7 = tested on: MCF7
SNB-75 = tested on: SNB-75
SN12C = tested on: SN12C
786-0 = tested on: 786-0
NCI-H23 = tested on: NCI-H23
CAKI-1 = tested on: CAKI-1
OVCAR-4 = tested on: OVCAR-4
HCT-116 = tested on: HCT-116
RPMI-8226 = tested on: RPMI-8226
NCI-H226 = tested on: NCI-H226
SK-OV-3 = tested on: SK-OV-3
DU-145 = tested on: DU-145
SK-MEL-5 = tested on: SK-MEL-5
PC-3 = tested on: PC-3
MDA-N = tested on: MDA-N
HT-29 = tested on: HT-29
SK-MEL-28 = tested on: SK-MEL-28
UACC-257 = tested on: UACC-257
MOLT-4 = tested on: MOLT-4
HOP-92 = tested on: HOP-92
SNB-19 = tested on: SNB-19
NCI-H460 = tested on: NCI-H460
HCT-15 = tested on: HCT-15
CCRF-CEM = tested on: CCRF-CEM
T47D = tested on: T47D
M14 = tested on: M14
SF-268 = tested on: SF-268
A549 = tested on: A549
MDA-MB-231 = tested on: MDA-MB-231
K562 = tested on: K562
OVCAR-5 = tested on: OVCAR-5
SR = tested on: SR
HOP-62 = tested on: HOP-62
ACHN = tested on: ACHN
HL-60 = tested on: HL-60
EKVX = tested on: EKVX
KM12 = tested on: KM12
HCC 2998 = tested on: HCC 2998
Hs-578T = tested on: Hs-578T
TK-10 = tested on: TK-10
SK-MEL-2 = tested on: SK-MEL-2
UACC-62 = tested on: UACC-62
LOX IMVI = tested on: LOX IMVI
OVCAR-3 = tested on: OVCAR-3
SW-620 = tested on: SW-620
IGROV-1 = tested on: IGROV-1
NCI/ADR-RES = tested on: NCI/ADR-RES
MDA-MB-435 = tested on: MDA-MB-435
COLO 205 = tested on: COLO 205
U-251 = tested on: U-251
A498 = tested on: A498
RXF 393 = tested on: RXF 393
NCI-H522 = tested on: NCI-H522
BT-549 = tested on: BT-549
SF-539 = tested on: SF-539

O=c1[nH]c(=O)n(C2CC(O)C(COP(=O)(OCC(Cl)(Cl)Cl)OCC(Cl)(Cl)Cl)O2)cc1F (centres undefined)
GI50 (SF-295): 0.123 µM (active)
GI50 (UO-31): 0.301 µM (active)
GI50 (OVCAR-8): 0.556 µM (active)
GI50 (Malme-3M): 6.05 µM (inactive)
GI50 (MCF7): 0.0619 µM (active)
GI50 (SNB-75): 6.1 µM (inactive)
GI50 (SN12C): 26.1 µM (inactive)
GI50 (786-0): 0.245 µM (active)
GI50 (NCI-H23): 8.63 µM (inactive)
GI50 (CAKI-1): 0.3 µM (active)
GI50 (OVCAR-4): > 76 µM (inactive)
GI50 (HCT-116): 2.21 µM (inactive)
GI50 (RPMI-8226): 3.72 µM (inactive)
GI50 (NCI-H226): 95.1 µM (inactive)
GI50 (SK-OV-3): > 48.6 µM (inactive)
GI50 (DU-145): 2.81 µM (inactive)
GI50 (SK-MEL-5): 1.97 µM (inactive)
GI50 (PC-3): 15.2 µM (inactive)
GI50 (MDA-N): > 26 µM (inactive)
GI50 (HT-29): 9.23 µM (inactive)
GI50 (SK-MEL-28): > 28.6 µM (inactive)
GI50 (UACC-257): > 100 µM (inactive)
GI50 (MOLT-4): 1.1 µM (active)
GI50 (HOP-92): 6.9 µM (inactive)
GI50 (SNB-19): 7.98 µM (inactive)
GI50 (NCI-H460): < 0.0226 µM (active)
GI50 (HCT-15): > 56.1 µM
GI50 (CCRF-CEM): 0.195 µM (active)
GI50 (T47D): > 50.8 µM (inactive)
GI50 (M14): 2 µM (inactive)
GI50 (SF-268): 1.24 µM (inactive)
GI50 (A549): 0.212 µM (active)
GI50 (MDA-MB-231): > 47 µM (inactive)
GI50 (K562): 4.11 µM (inactive)
GI50 (OVCAR-5): > 94.2 µM (inactive)
GI50 (SR): 0.391 µM (active)
GI50 (HOP-62): 0.115 µM (active)
GI50 (ACHN): 0.298 µM (active)
GI50 (HL-60): 5.85 µM (inactive)
GI50 (EKVX): > 100 µM (inactive)
GI50 (KM12): > 100 µM (inactive)
GI50 (HCC 2998): < 0.01 µM (active)
GI50 (Hs-578T): 52.7 µM (inactive)
GI50 (TK-10): > 100 µM (inactive)
GI50 (SK-MEL-2): > 100 µM (inactive)
GI50 (UACC-62): 0.396 µM (active)
GI50 (LOX IMVI): > 35.1 µM (inactive)
GI50 (OVCAR-3): 8 µM (inactive)
GI50 (SW-620): > 100 µM (inactive)
GI50 (IGROV-1): > 65.6 µM (inactive)
GI50 (NCI/ADR-RES): 1.29 µM (inactive)
GI50 (MDA-MB-435): > 86.3 µM (inactive)
GI50 (COLO 205): 23.5 µM (inactive)
GI50 (U-251): 2.95 µM (inactive)

O=C(OCC(OC(=O)c1ccccc1)C1CC(C2(O)CCCCC2)C(=O)O1)c1ccccc1 (centres undefined)
GI50 (SF-295): > 25 µM (inactive)
GI50 (UO-31): 0.0181 µM (active)
GI50 (OVCAR-8): > 25 µM (inactive)
GI50 (Malme-3M): > 25 µM (inactive)
GI50 (MCF7): 21 µM (inactive)
GI50 (SNB-75): 15.7 µM (inactive)
GI50 (SN12C): > 25 µM (inactive)
GI50 (A498): > 25 µM (inactive)
GI50 (786-0): > 25 µM (inactive)
GI50 (NCI-H23): 0.05 µM (active)
GI50 (CAKI-1): > 25 µM (inactive)
GI50 (OVCAR-4): > 25 µM (inactive)
GI50 (HCT-116): > 25 µM (inactive)
GI50 (RPMI-8226): > 25 µM (inactive)
GI50 (NCI-H226): > 25 µM (inactive)
GI50 (SK-OV-3): > 25 µM (inactive)
GI50 (DU-145): > 25 µM (inactive)
GI50 (SK-MEL-5): > 25 µM (inactive)
GI50 (PC-3): > 25 µM (inactive)
GI50 (MDA-N): > 25 µM (inactive)
GI50 (HT-29): 14 µM (inactive)
GI50 (SK-MEL-28): > 25 µM (inactive)
GI50 (RXF 393): > 25 µM (inactive)
GI50 (UACC-257): > 25 µM (inactive)
GI50 (MOLT-4): 6.64 µM (inactive)
GI50 (SNB-19): > 25 µM (inactive)
GI50 (NCI-H460): 9.18 µM (inactive)
GI50 (HCT-15): > 25 µM
GI50 (CCRF-CEM): 13.4 µM (inactive)
GI50 (M14): > 25 µM (inactive)
GI50 (SF-268): > 25 µM (inactive)
GI50 (A549): > 25 µM (inactive)
GI50 (MDA-MB-231): > 25 µM (inactive)
GI50 (NCI-H522): > 25 µM (inactive)
GI50 (K562): 15.9 µM (inactive)
GI50 (OVCAR-5): > 25 µM (inactive)
GI50 (SR): 7.59 µM (inactive)
GI50 (HOP-62): > 25 µM (inactive)
GI50 (ACHN): > 25 µM (inactive)
GI50 (BT-549): 0.478 µM (active)
GI50 (EKVX): > 25 µM (inactive)
GI50 (KM12): 11 µM (inactive)
GI50 (HCC 2998): > 25 µM (inactive)
GI50 (TK-10): > 25 µM (inactive)
GI50 (SK-MEL-2): > 25 µM (inactive)
GI50 (UACC-62): 0.0462 µM (active)
GI50 (LOX IMVI): > 25 µM (inactive)
GI50 (OVCAR-3): > 25 µM (inactive)
GI50 (SF-539): > 25 µM (inactive)
GI50 (SW-620): > 25 µM (inactive)
GI50 (IGROV-1): > 25 µM (inactive)
GI50 (NCI/ADR-RES): > 25 µM (inactive)
GI50 (MDA-MB-435): > 25 µM (inactive)
GI50 (COLO 205): > 25 µM (inactive)
GI50 (U-251): > 25 µM (inactive)
